Results published in patent US20090264457A1, “Combination of at least two 5HT6-Ligands” (priority 2007, published 2009).
Entries after “also recorded” stand apart in the source; their conditions may differ.

What was measured:
[1] = tested on: Lister Hooded rats; assay: Novel object discrimination trial (two trial paradigm); assay type: in vivo, rat; details: for Dose at which the maximum effect was achieved in dose response trials: i.p., drug 20 minutes before familiarisation trial, COMPOUND 1 at 1.25, 2.5, 5 or 10 mg/kg, SB-271046 at 5 or 10 mg/kg
Procedure: Adult male Lister Hooded rats (Charles River, UK) weighing 200-350 g at the start of the experiment were housed in groups of four on a 12:12 h light:dark cycle (lights on at 07:00 h). Food and water were available ad libitum throughout the study, and the room temperature (21±2° C.) and relative humidity (45-65%) were kept constant. […] Each drug combination was administered to all rats in the group over a period of 4 weeks in a random order using a seven day behavioural test interval.
The two trial novel object discrimination paradigm utilised, was as described by Ennaceur and Delacour, (1988) with minor modification (King et al., 2004b; Woolley et al., 2003). The twelve open field test arenas used for object discrimination were clear perspex boxes (39×23.5 cm with 24.5 cm high walls) to which each rat was habituated for 60 minutes the day prior to test days. On the test day the first drug was administered −40 minutes and the second drug −20 minutes before the familiarisation trial. Therefore, 20 minutes after the injection each rat received 3 minutes acclimatisation to the perspex box in absence of objects which was then followed by the 3 minute familiarisation trial and a second 3 minute choice trial following a 4 hour inter-trial interval. During both trials, exploration of each object was defined as the time spent (s) sniffing (within 1 cm of it with active vibrissae), licking, chewing or touching the object with the nose.

[2] = molecular target: 5HT6 receptor (Homo sapiens, UniProt P50406); details: cited from earlier work
5HT6 receptor, sequence (P50406 whole entry): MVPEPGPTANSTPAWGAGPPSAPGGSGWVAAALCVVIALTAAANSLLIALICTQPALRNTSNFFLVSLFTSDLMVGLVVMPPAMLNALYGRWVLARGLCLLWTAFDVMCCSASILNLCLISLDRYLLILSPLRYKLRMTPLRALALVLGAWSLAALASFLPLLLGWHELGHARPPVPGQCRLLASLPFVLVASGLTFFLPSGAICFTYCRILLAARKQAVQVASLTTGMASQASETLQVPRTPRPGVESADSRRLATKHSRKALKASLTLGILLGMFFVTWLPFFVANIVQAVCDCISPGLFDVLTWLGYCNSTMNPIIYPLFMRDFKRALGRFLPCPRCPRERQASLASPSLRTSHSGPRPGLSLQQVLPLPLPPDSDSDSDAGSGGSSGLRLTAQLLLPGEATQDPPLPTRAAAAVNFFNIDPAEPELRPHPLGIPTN

SMILES	Effectiveness alone in novel object discrimination ([1]; SB-271046 alone at 5 mg/kg i.p., 5 mg/kg)	Dose at which the maximum effect was achieved in dose response trials [1] [mg/kg]	Functionality on the 5HT6 receptor [2]	Effectiveness alone in novel object discrimination ([1]; COMPOUND 1 alone at 1 mg/kg i.p., 1 mg/kg)
COc1ccc(NS(=O)(=O)c2sc3ccc(Cl)cc3c2C)cc1N1CCNCC1 [SB-271046, 5-Chloro-N-(4-methoxy-3-(piperazin-1-yl)phenyl)-3-methyl-2-benzothiophene sulfonamide]	either not or very low effective; also recorded: neither COMPOUND 1 at 1 mg/kg nor SB-271046 at 5 mg/kg being significantly effective	10	antagonist	
CN(C)CCc1c[nH]c2ccc(NS(=O)(=O)c3c(Cl)nc4sccn34)cc12 [COMPOUND 1, 6-Chloro-imidazo[2,1-b]thiazole-5-sulfonic acid [3-(2-dimethylamino-ethyl)-1H-indol-5-yl]-amide]		5	agonist	either not or very low effective; also recorded: neither COMPOUND 1 at 1 mg/kg nor SB-271046 at 5 mg/kg being significantly effective
